Measurements as given in patent publication US10519211B2, “Compounds as peptidic GLP1/glucagon/GIP receptor agonists” (SANOFI, priority 2016, dated 2019).
Numbered stars: 1 amine (or outer) side, 2 acyl side, 3 side chain; on linkers, the order of the positions; unused ones are H or OH. Square brackets hold non-standard residues; d marks the D form. Side chains are listed from the residue outwards. Peptide text beside a SMILES is read from it. * marks the point of attachment. γGlu = O=C(O)[C@H](CCC(=O)[*:2])N[*:1]; Palmitoyl = CCCCCCCCCCCCCCCC(=O)*; Aib = CC(C)(N)C(=O)O

What was measured:
[1] = biological target: T1, human GIP receptor (hGIP-R) (Homo sapiens, UniProt P48546); test: cAMP response (HTRF) of HEK-293 cells stably expressing human GIP receptor; type: cell-based; conditions: Table 8; cAMP formation
T1 construct: expressed in transfected cells; host or cells: HEK-293
T1 sequence (P48546 22-466): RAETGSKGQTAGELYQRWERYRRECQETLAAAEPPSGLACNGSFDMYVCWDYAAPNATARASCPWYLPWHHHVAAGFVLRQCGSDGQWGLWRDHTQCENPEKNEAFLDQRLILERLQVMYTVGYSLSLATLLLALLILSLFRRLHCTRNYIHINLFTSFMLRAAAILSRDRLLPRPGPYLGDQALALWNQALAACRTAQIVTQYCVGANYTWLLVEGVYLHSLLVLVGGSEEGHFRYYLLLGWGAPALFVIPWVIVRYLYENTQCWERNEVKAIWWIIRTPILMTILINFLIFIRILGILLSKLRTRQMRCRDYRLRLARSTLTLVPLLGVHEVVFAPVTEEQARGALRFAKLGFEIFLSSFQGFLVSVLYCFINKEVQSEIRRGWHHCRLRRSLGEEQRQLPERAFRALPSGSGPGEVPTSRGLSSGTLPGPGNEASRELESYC
Method: cAMP content of cells was determined using a kit from Cisbio Corp. (cat. no. 62AM4PEJ) based on HTRF (Homogenous Time Resolved Fluorescence). For preparation, cells were split into T175 culture flasks and grown overnight to near confluency in medium (DMEM/10% FBS). Medium was then removed and cells washed with PBS lacking calcium and magnesium, followed by proteinase treatment with accutase (Sigma-Aldrich cat. no. A6964). Detached cells were washed and resuspended in assay buffer (1×HBSS; 20 mM HEPES, 0.1% BSA, 2 mM IBMX) and cellular density determined. They were then diluted to 400000 cells/ml and 25 μl-aliquots dispensed into the wells of 96-well plates. For measurement, 25 μl of test compound in assay buffer was added to the wells, followed by incubation for 30 minutes at room temperature.
Potencies of peptidic compounds at the GLP-1, glucagon and GIP receptors were determined by exposing cells expressing human glucagon receptor (hGlucagon R), human GIP receptor (hGIP-R) or human GLP-1 receptor (hGLP-1 R) to the listed compounds at increasing concentrations and measuring the formed cAMP as described in Methods.

[2] = test system: female, diabetic db/db mice; test: Acute effects after subcutaneous treatment on blood glucose in non-fasting diabetic db/db mice; type: in vivo, mouse; conditions: for Blood glucose AUC compared to the Diabetic-Vehicle group: 24 h; for Plasma glucose area under the curve (mmol/L in 24 h): once 30 μg/kg s.c., mean ± SEM
Method: Female healthy, lean BKS.Cg-(lean)/OlaHsd and diabetes-prone, obese BKS.Cg-+Lepr^db/+Lepr^db/OlaHsd mice were ordered group housed from Envigo RMS Inc., shipped group housed and remained group housed in shoebox caging with wood chip bedding until day 15 of the predose phase. At the study start mice were approximately 12 weeks old.
Mice were housed under vivarium conditions including a 12 h light/dark cycle (light phase 04:00 AM-4:00 PM), room temperatures between 23-26° C. and a relative humidity between 30-70%. All animals had free access to water and Purina Fomulab Diet 5008.
On predose day 9 blood glucose and body mass (approximately between 08:00-10:00 AM) as well as HbA1c measurements were performed. On day 15 of the predose phase animals were assigned to treatment groups (n=8) and to new cages to match mean HbA1c and body masses between all db/db groups. An age-matched lean group was included in the study as a healthy, lean reference.
Prior to day 1 of the dosing phase, the test article was diluted with Phosphate Buffered Saline (PBS, Gibco, without CaCl2 and MgCl2) to a concentration of 1 mg/mL and aliquots of this stock solution were stored at approximately −60° C. On day 1 of the dosing phase the stock aliquot was thawed and the injected test article solution was prepared fresh by diluting it with PBS to achieve the desired concentration.
On Day 1 of the dosing phase db/db mice were either treated once with a s.c. injection of PBS-vehicle or 30 μg/kg test article. The lean reference group was treated once with a s.c. injection of PBS-vehicle. The dosing was initiated and completed between 08:00 and 10:00 AM. The applied volume was 5 ml/kg and the dose was adjusted to the most recent body mass recording of each individual.
Animals had unlimited access to water and feed during the experiment. On day 1 of the dosing phase approximately 5 μL of blood were collected via tail clips at minute −30 and 0 prior to any other inlife activities. At minute 0 mice received a s.c. dose of either PBS-vehicle or 30 μg/kg test article. Further blood samples were harvested at hour 0.25, 0.5, 1, 1.5, 2, 3, 4, 6, 8, and 24 post-dose. Glucose measurements were performed in whole blood using AlphaTRAK glucometers. If the glucose concentrations of two measurements differed by more than 20 mg/dL a third value was recorded. The Area Under the Curve (AUC) for blood glucose was calculated via the trapezoid method and for the duration of the 24 post-dose hours.
Data are depicted as means±SEM. […] A One-Way ANOVA and Tukey Test were used for pairwise multiple comparisons of all groups (n=8/group, deviations from group size are indicated). […] Data from a Non-Diabetic-Vehicle group serve as a reference dataset for the normoglycemic, lean state.
Female, 12 weeks old, healthy, lean BKS.Cg-(lean)/OlaHsd or diabetes-prone, obese BKS.Cg-+Leprdb/+Leprdb/OlaHsd mice were treated once with a s.c. injection of PBS, 30 μg/kg SEQ ID NO: 6 or 30 μg/kg SEQ ID NO: 7. The dosing was initiated and completed between 08:00 and 10:00 AM. The applied volume was 5 ml/kg and the dose was adjusted to the most recent body mass recording of each individual. Diabetic db/db mice were HbA1c- and body mass-matched. The lean reference group was treated once with a s.c. injection of PBS-vehicle.
Animals had unlimited access to water and feed during the experiment. On day 1 of the dosing phase approximately 5 μL of blood were collected via tail clips at minute −30 and 0 prior to any other inlife activities. At minute 0 mice received a s.c. dose of either PBS-vehicle, 30 μg/kg SEQ ID NO: 6 or SEQ ID NO: 7. Further blood samples were harvested at minute 15, 30, 60, 90, 120, 150, 180, 240, 360, and 480 post-dose. Glucose measurements were performed in whole blood using AlphaTRAK glucometers. If the glucose concentrations of two measurements differed by more than 20 mg/dL a third value was recorded. […]

[3] = 30 μg/kg s.c. once, fed db/db mice
[4] = 30 μg/kg s.c. once, fed db/db mice, in words

| SMILES | EC50 [1] [pM] | Blood glucose AUC compared to the Diabetic-Vehicle group ([2]; 30 μg/kg s.c. once, in words) | Time post dose at which lowest blood glucose levels were reached [2, 3] | Blood glucose profile following single treatment [2, 4] | Mean blood glucose concentrations twenty four hours post-dose [2, 4] | Plasma glucose area under the curve (mmol/L in 24 h) ([2]; Table 12, fed db/db mice) | Plasma glucose area under the curve (mmol/L in 24 h) ([2]; Table 10, fed db/db mice) |
| --- | --- | --- | --- | --- | --- | --- | --- |
| CCCCCCCCCCCCCCCC(=O)N[C@@H](CCC(=O)N[C@@H](CCC(=O)NCCCC[C@H](NC(=O)[C@H](CC(C)C)NC(=O)[C@H](CCCCN)NC(=O)[C@H](CO)NC(=O)[C@H](CC(C)C)NC(=O)[C@H](CC(=O)O)NC(=O)[C@H](CO)NC(=O)[C@@H](NC(=O)[C@H](Cc1ccccc1)NC(=O)[C@@H](NC(=O)CNC(=O)[C@H](CCC(N)=O)NC(=O)C(C)(C)NC(=O)[C@@H](N)Cc1c[nH]cn1)[C@@H](C)O)[C@@H](C)O)C(=O)N[C@@H](CCC(=O)O)C(=O)N[C@@H](CCC(=O)O)C(=O)N[C@@H](CCC(N)=O)C(=O)N[C@@H](CCCNC(=N)N)C(=O)N[C@@H](CCC(N)=O)C(=O)NC(C)(C)C(=O)N[C@@H](CCC(=O)O)C(=O)N[C@@H](Cc1ccccc1)C(=O)N[C@H](C(=O)N[C@@H](CCC(=O)O)C(=O)N[C@@H](Cc1c[nH]c2ccccc12)C(=O)N[C@@H](CC(C)C)C(=O)N[C@@H](CCCCN)C(=O)N[C@@H](C)C(=O)NCC(=O)NCC(=O)N[C@@H](Cc1c[nH]cn1)C(=O)N1CCC[C@H]1C(=O)N[C@@H](CO)C(=O)NC(C)(C)C(=O)N[C@@H](CCCCN)C(=O)N1CCC[C@H]1C(=O)N1CCC[C@H]1C(=O)N1CCC[C@H]1C(=O)N[C@@H](CCCCN)C(N)=O)[C@@H](C)CC)C(=O)O)C(=O)O [SEQ ID NO: 8, H-Aib-Q-G-T-F-T-S-D-L-S-K-L-K[gGlu-gGlu-Palm]-E-E-Q-R-Q-Aib-E-F-I-E-W-L-K-A-G-G-H-P-S-Aib-K-P-P-P-K-NH2] | 5.6 | – | – | – | – | – | – |
| CCCCCCCCCCCCCCCC(=O)N[C@@H](CCC(=O)N[C@@H](CCC(=O)NCCCC[C@H](NC(=O)[C@H](CC(C)C)NC(=O)[C@H](CCCCN)NC(=O)[C@H](CO)NC(=O)[C@H](CC(C)C)NC(=O)[C@H](CC(=O)O)NC(=O)[C@H](CO)NC(=O)[C@@H](NC(=O)[C@H](Cc1ccccc1)NC(=O)[C@@H](NC(=O)CNC(=O)[C@H](CCC(N)=O)NC(=O)C(C)(C)NC(=O)[C@@H](N)Cc1c[nH]cn1)[C@@H](C)O)[C@@H](C)O)C(=O)N[C@@H](CCC(=O)O)C(=O)N[C@@H](CCCCN)C(=O)N[C@@H](CCC(N)=O)C(=O)N[C@@H](CCCNC(=N)N)C(=O)N[C@@H](CCC(N)=O)C(=O)NC(C)(C)C(=O)N[C@@H](CCC(=O)O)C(=O)N[C@@H](Cc1ccccc1)C(=O)N[C@H](C(=O)N[C@@H](CCC(=O)O)C(=O)N[C@@H](Cc1c[nH]c2ccccc12)C(=O)N[C@@H](CC(C)C)C(=O)N[C@@H](CCCCN)C(=O)N[C@@H](C)C(=O)N[C@H](C)C(=O)NCC(=O)N[C@@H](Cc1c[nH]cn1)C(=O)N1CCC[C@H]1C(=O)N[C@@H](CO)C(=O)NC(C)(C)C(=O)N[C@@H](CCCCN)C(=O)N1CCC[C@H]1C(=O)N1CCC[C@H]1C(=O)N1CCC[C@H]1C(=O)N[C@@H](CCCCN)C(N)=O)[C@@H](C)CC)C(=O)O)C(=O)O [SEQ ID NO: 13, H-Aib-Q-G-T-F-T-S-D-L-S-K-L-K[gGlu-gGlu-Palm]-E-K-Q-R-Q-Aib-E-F-I-E-W-L-K-A-dAla-G-H-P-S-Aib-K-P-P-P-K-NH2] (H-H[Aib]QGTFTSDLSKLK([γGlu-γGlu-Palmitoyl])EKQRQ[Aib]EFIEWLKA[dA]GHPS[Aib]KPPPK-NH2) | – | statistically significant reduction in the blood glucose AUC | approximately 8 hours | acute decrease in blood glucose concentrations | close to baseline | +458.34 ± 27.11 mmol/L in 24 h | – |
| CCCCCCCCCCCCCCCC(=O)N[C@@H](CCC(=O)N[C@@H](CCC(=O)NCCCC[C@H](NC(=O)[C@H](CC(C)C)NC(=O)[C@H](CCCCN)NC(=O)[C@H](CO)NC(=O)[C@H](CC(C)C)NC(=O)[C@H](CC(=O)O)NC(=O)[C@H](CO)NC(=O)[C@@H](NC(=O)[C@H](Cc1ccccc1)NC(=O)[C@@H](NC(=O)CNC(=O)[C@H](CCC(N)=O)NC(=O)C(C)(C)NC(=O)[C@@H](N)Cc1c[nH]cn1)[C@@H](C)O)[C@@H](C)O)C(=O)N[C@@H](CCC(=O)O)C(=O)N[C@@H](CCCCN)C(=O)N[C@@H](CCC(N)=O)C(=O)N[C@@H](CCCNC(=N)N)C(=O)N[C@@H](CCC(N)=O)C(=O)NC(C)(C)C(=O)N[C@@H](CCC(=O)O)C(=O)N[C@@H](Cc1ccccc1)C(=O)N[C@H](C(=O)N[C@@H](CCC(=O)O)C(=O)N[C@@H](Cc1c[nH]c2ccccc12)C(=O)N[C@@H](CC(C)C)C(=O)N[C@@H](CCCCN)C(=O)N[C@@H](C)C(=O)N[C@H](C)C(=O)NCC(=O)N1CCC[C@H]1C(=O)N1CCC[C@H]1C(=O)N[C@@H](CO)C(=O)NC(C)(C)C(=O)N[C@@H](CCCCN)C(=O)N1CCC[C@H]1C(=O)N1CCC[C@H]1C(=O)N1CCC[C@H]1C(=O)N[C@@H](CCCCN)C(N)=O)[C@@H](C)CC)C(=O)O)C(=O)O [SEQ ID NO: 7, H-Aib-Q-G-T-F-T-S-D-L-S-K-L-K[gGlu-gGlu-Palm]-E-K-Q-R-Q-Aib-E-F-I-E-W-L-K-A-dAla-G-P-P-S-Aib-K-P-P-P-K-NH2] (H-H[Aib]QGTFTSDLSKLK([γGlu-γGlu-Palmitoyl])EKQRQ[Aib]EFIEWLKA[dA]GPPS[Aib]KPPPK-NH2) | – | statistically significant reduction in the blood glucose AUC | approximately 8 hours | acute decrease in blood glucose concentrations | – | – | +461.54 ± 39.43 mmol/L in 24 h |
